From publication PMC8007834, “Anti-estrogenic and anti-aromatase activities of citrus peels major compounds in breast cancer” (Scientific Reports, 2021)
≈ marks a conversion by molar mass, not a printed value.

Columns and labels:
[1] = system: MCF-7; assay: SRB cytotoxicity assay on MCF7; type: cell-based, human; conditions: for IC50: Homo sapiens, MCF7, ± SD, read-out: IC50 values, cytotoxic effect on MCF7
Protocol: (§1) The assessment was performed in the National Cancer Institute in Egypt (NCI). The half maximal inhibitory concentration (IC50) values were then calculated from three independent experiments, three replicates each for each sample.

[2] = SRB cytotoxicity assay on normal HFB4 cells; type: cell-based, human; conditions: human, normal HFB4 cells, ± SD, read-out: IC50 values, cytotoxic effect on HFB4
Protocol: (§2) The cytotoxic activity of the ethanolic extracts of the peels along with the isolated major phenolics was tested against two human estrogen-dependent breast cancer cell lines, namely, MCF-7 and T47D, as well as the normal human HFB4 cells for assessment of toxicity, using the sulforhodamine B (SRB) assay. The assessment was performed in the National Cancer Institute in Egypt (NCI). The half maximal inhibitory concentration (IC50) values were then calculated from three independent experiments, three replicates each for each sample.

[3] = system: T47D; assay: SRB cytotoxicity assay on T47D; type: cell-based, human; conditions: ± SD; for IC50: Homo sapiens, T47D, read-out: IC50 values, cytotoxic effect on T47D
Protocol: as §1

[4] = system: Ehrlich ascites carcinoma (EAC) solid tumor; assay: Ehrlich ascites carcinoma (EAC) solid tumor model, tumor volume; type: in vivo, mice; conditions: 19th day after treatment; quercetin 100, naringenin 50, naringin 100 mg/kg i.p. daily
Source text: In order to evaluate the anticancer effect of the active isolates (quercetin, naringenin and naringin) and their potential to decrease aromatase levels in tumours, an animal model of Ehrlich ascites carcinoma (EAC) solid tumour was used followed by aromatase ELISA assay as will be described later. Swiss albino female mice (20-25 g) were used for the experiment. EAC cells were collected from the ascitic fluid of a female Swiss albino mouse bearing a 10-day old ascitic tumor where approximately 2.5 × 10^6 cells were transplanted, i.m. in the left thigh of female mice. When tumors became palpable (approximately 200-300 mm^3 in volume), treatment was initiated. Forty EAC-tumour bearing mice were randomly allocated into the following groups (n = 10): (1) PC group: positive control group that received only drug vehicle, (2) Qrt.-treated group: Mice were treated with a daily dose of 100 mg/kg of quercetin[30] i.p., (3) Narn.-treated group: Mice were treated with a daily dose of 50 mg/kg of naringenin, i.p.[31], and (4) Nar.-treated group: […] Treatment doses were given daily excluding Fridays and Saturdays. Tween 80 (1%) was used as a vehicle. Mice were sacrificed under brief anaesthesia at the 20th day after starting treatment and tumors were collected for further analysis. Tumor volume was calculated using a digital caliper at days 0, 4, 7, 10, 13, 16, and 19 after treatment, according to the following equation[33]: […]

[5] = system: Aromatase; assay: Aromatase protein levels in EAC solid tumors (ELISA); type: in vivo, mice; conditions: for aromatase levels in tumors, lower than positive control group: ELISA on tumor homogenates, day 20, quercetin 100, naringenin 50, naringin 100 mg/kg i.p.
Source text: EAC cells were collected from the ascitic fluid of a female Swiss albino mouse bearing a 10-day old ascitic tumor where approximately 2.5 × 10^6 cells were transplanted, i.m. in the left thigh of female mice. When tumors became palpable (approximately 200–300 mm^3 in volume), treatment was initiated. Forty EAC-tumour bearing mice were randomly allocated into the following groups (n = 10): (1) PC group: positive control group that received only drug vehicle, (2) Qrt.-treated group: Mice were treated with a daily dose of 100 mg/kg of quercetin[30] i.p., (3) Narn.-treated group: Mice were treated with a daily dose of 50 mg/kg of naringenin, i.p.[31], and (4) Nar.-treated group: Mice were treated with a daily dose of 100 mg/kg of naringin, i.p.[32]. Treatment doses were given daily excluding Fridays and Saturdays. Tween 80 (1%) was used as a vehicle. Mice were sacrificed under brief anaesthesia at the 20th day after starting treatment and tumors were collected for further analysis.
Excised tumors were homogenized as 10% (w/v) in phosphate buffered saline. Aromatase concentration was then determined in tissue homogenates using Mouse Aromatase ELISA kit (MyBiosource, USA), according to the manufacturer’s instructions. Optical density equivalent to aromatase levels in samples was determined at 450 nm using a microplate reader.

[6] = system: Immature female Swiss albino mice; assay: In vivo estrogenic activity assay; conditions: 30 mg/kg i.p.
Protocol: (§3) Immature female Swiss albino mice (8-13 g) were obtained from the animal house of the Faculty of Pharmacy, The British University in Egypt. All experimental procedures were conducted in compliance with the Animal Research: Reporting of In Vivo Experiments (ARRIVE) guidelines and the National Institutes of Health guide for the care and use of Laboratory animals (NIH Publication No. 85-23, revised 2011) and were approved by the Ethics Committee, Faculty of Pharmacy, The British University in Egypt (Ex-2101). All experiments were performed during the light phase of a light/dark cycle that was started 1 week after acclimatization. The room temperature was adjusted at 25 ± 2 °C. Mice had free access to food and water during the experiments. The experimental design was adopted from[27],[28]. The mice were randomly divided into 9 groups (7-8 mice each) as follows: Group 1: Negative control (NC) receiving only olive oil, s.c.; Group 2: […] For estrogenic activity, Group 3: Genistein phytoestrogen positive control (Gein.) treated group; Group 4: Quercetin (Qrt.) treated group; Group 5: Naringenin (Narn.) treated group and Group 6: Naringin (Nar.) treated group. For anti-estrogenic activity, estradiol was given after treatments by 6 h for Groups 7, 8 and 9 representing […]., respectively. All treatments including genistein were given at a dose of 30 mg/kg dissolved in Tween 80 (1%), i.p., for 7 days. The animals' weights were recorded daily to ensure the safety of the doses used. On the 7th day, the animals were sacrificed, the morphological appearance of the livers was observed, and the uteri were also isolated and weighed. The in vivo estrogenic and anti-estrogenic activities were assessed. The vaginal opening on each day of the study was checked as a sign of puberty. On the 7th day, vaginal swab was taken from the opened vagina to examine the cornification level under light microscope (4× lens). The uteri were excised and weighed after sacrification of mice under anesthesia.

[7] = system: Immature female Swiss albino mice; assay: In vivo anti-estrogenic activity assay (with estradiol); conditions: for reversal of estradiol-induced vaginal cornification / reduction in uterine weight compared to estradiol alone: 30 mg/kg i.p. plus estradiol; for reduction in uterine weight compared to estradiol alone: 7 days; for day on which vaginal opening reached 100% / day on which vaginal opening started (delay up to day): flavonoid 30 mg/kg i.p. plus estradiol 12.5 µg/kg s.c., estradiol alone as positive control
Protocol: as §3

[8] = system: uterine weight; parameters: method as in PMID 25337190; conditions: cited from earlier work
[9] = system: estrogen-induced uterine weight; conditions: 30 mg/rat co-treated with estradiol (0.5 µg/rat); cited from earlier work
[10] = parameters: method as in PMID 21964193; conditions: naringin 40 and naringenin 80 mg/kg, respectively; cited from earlier work
[11] = system: HFB4 cells; assay: SRB cytotoxicity assay on normal HFB4 cells; type: cell-based, human; conditions: ± SD
Protocol: as §2

[12] = target: T1, Aromatase enzyme (CYP19) (Homo sapiens, UniProt P11511); assay: In vitro aromatase inhibition assay (dibenzylfluorescein); type: biochemical; conditions: ± SD
T1 construct: purchased BD Biosciences, San Jose, CA
T1 sequence (P11511 1-503): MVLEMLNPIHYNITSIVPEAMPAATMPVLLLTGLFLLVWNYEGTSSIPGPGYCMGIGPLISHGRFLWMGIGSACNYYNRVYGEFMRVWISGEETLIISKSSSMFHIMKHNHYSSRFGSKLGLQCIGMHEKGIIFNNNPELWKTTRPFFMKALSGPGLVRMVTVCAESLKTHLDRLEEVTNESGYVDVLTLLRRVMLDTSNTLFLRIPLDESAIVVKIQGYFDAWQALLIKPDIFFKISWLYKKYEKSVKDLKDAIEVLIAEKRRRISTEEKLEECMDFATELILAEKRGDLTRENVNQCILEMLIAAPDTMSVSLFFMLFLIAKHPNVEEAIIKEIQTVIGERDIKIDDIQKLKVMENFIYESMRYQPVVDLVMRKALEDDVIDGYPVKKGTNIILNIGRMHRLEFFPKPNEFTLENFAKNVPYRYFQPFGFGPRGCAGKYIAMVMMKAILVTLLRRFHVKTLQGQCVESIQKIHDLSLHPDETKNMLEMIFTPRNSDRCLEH
Protocol: Aromatase inhibition was quantified by measuring the fluorescent intensity of fluorescein, the hydrolysis product of dibenzylfluorescein, by aromatase, as previously described[29]. In brief, the test substance (10 µL) was pre-incubated with the NADPH regenerating system (90 µL of 2.6 mM NADP^+, 7.6 mM glucose 6-phosphate, 0.8 U/mL glucose 6-phosphate dehydrogenase, 13.9 mM MgCl2, and 1 mg/mL albumin in 50 mM potassium phosphate, pH 7.4) for 10 min at 37 °C before 100 µL of the enzyme and substrate mixture [4 pmol/well enzyme (CYP19, BD Biosciences, San Jose, CA), 0.4 µM dibenzylfluorescein, and 4 mg/mL albumin in 50 mM potassium phosphate, pH 7.4] were added. Then, the reaction mixture was incubated for 30 min at 37 °C to allow aromatase to generate the product and quenched with 75 µL of 2 N NaOH. After the reaction was terminated, shaking was done for 5 min followed by incubation for 2 h at 37 °C to enhance the noise/background ratio, then fluorescence was measured at 485 nm (excitation) and 530 nm (emission). Three independent experiments were performed in duplicates, and the average values were used to construct the dose–response curves.

Row | Compound | IC50 [1] [µg/mL] | IC50 [2] [µg/mL] | IC50 [3] [µg/mL] | decrease in tumor volume compared to positive control [4] [%] | average uterine weight ([6]; 7 days, no estradiol) [mg] | reversal of estradiol-induced vaginal cornification [7] | reduction in uterine weight compared to estradiol alone [7] [%] | day on which vaginal opening reached 100% [7] [days] | day on which vaginal opening started (delay up to day) [7] [days] | other results
1 | COc1ccc(-c2cc(=O)c3c(OC)c(OC)c(OC)c(OC)c3o2)cc1OC [C1, 5,6,7,8,3′,4′-hexamethoxy flavone] | > 50 | > 50 | > 50 | – | – | – | – | – | – | –
2 | O=c1c(O)c(-c2ccc(O)c(O)c2)oc2cc(O)cc(O)c12 [C2, 5,7,3′,4′-tetrahydroxy flavonol] | 2.11 ± 0.71 (≈ 6.98 µM) | > 50 | 1.81 ± 0.28 (≈ 5.99 µM) | 61.71 | 13.0 ± 3.0 | not fully reversed | 48 | 4 | 2 | reduction in aromatase levels as compared to naringenin ([5]; EAC tumors, ELISA): 26.4%; reduction in aromatase levels as compared to naringin ([5]; EAC tumors, ELISA): 32%; aromatase levels in tumors, lower than positive control group [5]: 72.35%; day on which vaginal opening started ([6]; 7 days, no estradiol): 6 days; effect on the uterine weight upon treatment with steroid ([8]; 10 mg/kg): anti-estrogenic effect; estrogenic effect at higher dose ([8]; 100 mg/kg): potent estrogenic effect
3 | COc1ccc(-c2cc(=O)c3c(O)cc(O[C@@H]4O[C@H](CO[C@@H]5O[C@@H](C)[C@H](O)[C@@H](O)[C@H]5O)[C@@H](O)[C@H](O)[C@H]4O)cc3o2)cc1O [C3, 5,3′-dihydroxy-4′-methoxy flavone-7O-α-L-rhamnopyranosyl (1 → 6)β-D-glucopyranoside] | > 50 | > 50 | > 50 | – | – | – | – | – | – | –
4 | O=C1CC(c2ccc(O)cc2)Oc2cc(O)cc(O)c21 (centres unmarked) [C4, 5,7,4′-trihydroxy flavanone] | 1.12 ± 0.09 (≈ 4.11 µM) | > 50 | 1.93 ± 0.07 (≈ 7.09 µM) | 73.26 | 16.0 ± 3.7 | not fully reversed | 58 | 7 | 5 | effect on estrogen-induced uterine weight [9]: significant decrease in estrogen-induced uterine weight; estrogenic and anti-estrogenic activities [10]: double directional estrogenic and anti-estrogenic activities
5 | COc1ccc([C@@H]2CC(=O)c3c(O)cc(O[C@@H]4O[C@H](CO[C@@H]5O[C@@H](C)[C@H](O)[C@@H](O)[C@H]5O)[C@@H](O)[C@H](O)[C@H]4O)cc3O2)cc1O [C5, 5,3′-dihydroxy-4′-methoxy flavanone-7O-α-L-rhamnopyranosyl (1 → 6)β-D-glucopyranoside] | – | – | – | – | – | – | – | – | – | IC50 values, cytotoxic effect on MCF7 ([1]; ± SD): – ((−) no activity in a concentration up to 50 µg/mL); IC50 values, cytotoxic effect on HFB4 [11]: – ((−) no activity in a concentration up to 50 µg/mL); IC50 values, cytotoxic effect on T47D [3]: – ((−) no activity in a concentration up to 50 µg/mL)
6 | COc1ccc(C2CC(=O)c3c(O)cc(O)cc3O2)cc1O (centres unmarked) [C6, 5,7,3′-trihydroxy-4′-methoxy flavanone] | 4.96 ± 0.89 (≈ 16.4 µM) | > 50 | 3.53 ± 0.19 (≈ 11.7 µM) | – | – | – | – | – | – | –
7 | C[C@@H]1O[C@@H](OC[C@H]2O[C@@H](Oc3c(-c4ccc(O)c(O)c4)oc4cc(O)cc(O)c4c3=O)[C@H](O)[C@@H](O)[C@@H]2O)[C@H](O)[C@H](O)[C@H]1O [C7, 5,7,3′,4′-tetrahydroxy flavon-3O-α-L-rhamnopyranosyl (1 → 6)β-D-glucopyranoside] | > 50 | > 50 | > 50 | – | – | – | – | – | – | –
8 | C[C@@H]1O[C@@H](O[C@H]2[C@H](Oc3cc(O)c4c(c3)O[C@H](c3ccc(O)cc3)CC4=O)O[C@H](CO)[C@@H](O)[C@@H]2O)[C@H](O)[C@H](O)[C@H]1O [C8] | 2 ± 0.98 (≈ 3.45 µM) | > 50 | 3.63 ± 0.1 (≈ 6.25 µM) | 71.47 | 17.0 ± 2.6 | not fully reversed | 57.7 | 7 | 3 | aromatase levels in tumors, lower than positive control group [5]: 59.36%; IC50 [12]: 3.26 µM; estrogenic and anti-estrogenic activities [10]: double directional estrogenic and anti-estrogenic activities
9 | C[C@]12CC[C@@H]3c4ccc(OC(=O)c5ccccc5)cc4CC[C@H]3[C@@H]1CC[C@@H]2O [estradiol, Estradiol benzoate, reference compound] | – | – | – | – | – | – | – | 5 | 2 | body weight ([7]; 7 days treatment): 15.6 ± 1.8 g; uterine weight ([7]; estradiol alone 12.5 µg/kg s.c.): 215.0 ± 64.4 mg
10 | O=c1c(-c2ccc(O)cc2)coc2cc(O)cc(O)c12 [genistein, reference compound] | – | – | – | – | 20.0 ± 7.5 | – | – | – | – | vaginal cornification ([6]; day 7 swab): mild vaginal cornification
